From patent publication US11179375B2, “Methods and drug products for treating Alzheimer's disease” (Zinfandel Pharmaceuticals, Inc., priority 2011, dated 2021)
Structures can show the parent of a compound that is named as a salt. Where two headings read alike, the source gives them in different places. Values belong to the molecule of their own block, whether it stands above or below them.

Experiments:
[1] = Human exposure (AUC) used for dose extrapolation; conditions: in vivo, humans, dose of 7.5 mg
Description: (§1) Extrapolation to the corresponding dosage in humans was achieved while adjusting for the relative AUC for each.

[2] = in vivo; conditions: rat
Description: as §1

[3] = system: rat brain; experiment: Rat BOLD fMRI study of resting state functional connectivity; format: in vivo
Experimental: BOLD fMRI was used to measure drug-related changes in resting state functional connectivity across the whole brain.
Adult male Wistar rats (275±25 g) were housed separately and maintained on a 12-h light, 12-h dark schedule. Food and water was provided ad libitum. Animals were cared for in accordance with the guidelines published in the Guide for the Care and Use of Laboratory Animals (National Institutes of Health Publications No. 85-23, Revised 1985). Animal body weights were measured approximately 24 hours before Day −3, and on Study Days 3 and 6.
Pioglitazone HCl (PIO) was dissolved in 0.5 mol/L citric acid (CA) to yield a stock solution at a concentration of 0.32 mg/10 mL/kg. Other dosages were prepared by appropriate dilution of the stock solution with 0.5 mol/L CA to yield dose volumes of 10 mL/kg. Control rats received the vehicle at 10 mL/kg. Dose concentrations were based on the weight of the test article as supplied (i.e., as the HCl salt), with the dose adjusted to the most recent body weight of the animal. Daily dosing with PIO in solution was by oral gavage at approximately the same time every day. Animals were anesthetized lightly with isoflurane immediately beforehand to facilitate dosing.
All animals used in the imaging studies were acclimated to the MRI holding device by being placed in it for 15-90 minutes daily for at least 7 days, as previously described (Zhang et al. 2010 J Neurosci Methods 189: 186-196; Liang et al. 2011 J Neurosci 31: 3776-3783).
After the acclimation period, animals were assigned to 1 of 7 treatment arms matched for mean body weights (see Table 1). Dosing occurred once daily, at approximately the same time every day. All animals were imaged at Baseline (Study Day −3), approximately 2.5 to 3 h after dosing with vehicle. Dosing began 3 days later (Study Day 1). On this day, all animals were administered either vehicle (CA) or PIO depending on their group assignment. On Study Day 2, one vehicle group and one group treated with PIO at 0.08 mg/kg/day (Acute Arm) were imaged approximately 2.5 to 3 h after dosing. For all groups, dosing continued for seven days total. On Study Day 7, all rats were imaged approximately 2.5 to 3 h after administration of the final dose.
Animal preparation activities related to imaging were initiated to insure that the imaging itself occurred approximately 2.5 to 3 h after dosing. The animals were prepared for positioning in the restraint under isoflurane anesthesia as previously described (Zhang et al. 2010, supra). […] Imaging was conducted on awake animals.
All MR experiments were conducted using a 4.7 T/40 cm horizontal magnet (Oxford, UK) interfaced with a BiospecBruker console (Bruker, Germany) and equipped with a 20 G/cm magnetic field gradient. A dual ^1H radiofrequency (RF) coil configuration (Insight Neurolmaging Systems, Worcester, Mass.) consisting of a volume coil for exciting the water proton spins and a surface coil for receiving MRI signal was used; the volume and surface coils were actively tuned and detuned to prevent mutual coil coupling. This dual-coil configuration allowed for sufficient RF field homogeneity in the rat brain for RF transmission, while preserving the advantage of higher signal-to-noise ratio (SNR) provided by the smaller reception coil.
Anatomical images were acquired first using a multi-slice fast spin-echo sequence (RARE) with the parameters: repetition time (TR)=2125 ms; RARE factor=8; effective echo time (TE)=50 ms; matrix size=256×256; field of view (FOV)=3.2×3.2 cm^2; slice number=18; slice thickness=1 mm; n=8.

[4] = system: cell death due to glucose deprivation; conditions: cited from earlier work
[5] = system: transgenic mouse models of AD, and mouse and rat models of neurodegeneration or brain injury; conditions: in vivo; cited from earlier work
[6] = system: neuronal insulin resistance; conditions: cited from earlier work
[7] = system: diabetic patients with AD or mild cognitive impairment; conditions: placebo-controlled clinical trials; cited from earlier work

AUC [1]: 2800 ng·h/mL | AUC ([2]; Wistar, po, 0.04 mg/kg/day): 570 ng·h/mL | AUC ([2]; Wistar, po, 0.08 mg/kg/day): 1140 ng·h/mL | AUC ([2]; Wistar, po, 0.16 mg/kg/day): 2280 ng·h/mL | AUC ([2]; Wistar, po, 0.32 mg/kg/day): 4550 ng·h/mL | AUC ([2]; 0.5 mg/kg/day): 7110 ng·h/mL | blood brain barrier penetration ([3]; low-dose PIO, administered orally, concluded from fMRI changes): penetrates the blood brain barrier
Structure (SMILES): CCc1ccc(CCOc2ccc(CC3SC(=O)NC3=O)cc2)nc1 (stereo not shown) [PIO, Pioglitazone HCl]
time at which functional changes were induced ([3]; 0.08 mg/kg/day, earliest time point assayed after initiation of treatment): ≤ 24 h | fMRI signal relative to lower dosages ([3]; 0.32 mg/kg/day, appearance in FIG. 1, to be confirmed): diminished signal | dose that induced functional changes at earliest time point ([3]; 24 hours after initiation of treatment): ≥ 0.08 mg/kg/day | dose that induces change in metabolism in deep subcortical structure of the rat brain (fMRI) ([3]; group-averaged fMRI signal, treatment day 7, relative to vehicle control): ≥ 0.04 mg/kg/day | dose that induces changes in multiple brain regions ([3]; oral, relative to vehicle control): ≥ 0.04 mg/kg/day

brain concentration (0.5 mg dose): approximately 6.7 nM | serum concentration (0.5 mg dose): approximately 33.3 nM | brain concentration (1.5 mg dose): approximately 20 nM | serum concentration (1.5 mg dose): approximately 100 nM | brain concentration (4.5 mg dose): approximately 50 nM | serum concentration (4.5 mg dose): approximately 300 nM | brain concentration (9 mg dose): approximately 120 nM | serum concentration (9 mg dose): approximately 600 nM
Structure (SMILES): CCc1ccc(CCOc2ccc(CC3SC(=O)NC3=O)cc2)nc1 (stereo not shown) [pioglitazone, Pioglitazone]
concentration that significantly reduces cell death due to glucose deprivation [4]: ≥ 1 nM | expression of NRF1, TFAM1 and UCP-2 [4]: increases expression | reported effects in animal models (amyloid plaque burden, brain glucose utilization, inflammation, oxidative stress, memory and learning deficits, neurogenesis) [5]: Beneficial effects | neuronal insulin resistance [6]: improves neuronal insulin resistance | change in metabolism in the central region of the deep cortical structures of the brain (fMRI) ([3]; even the lowest doses, orally-administered, immediate release): produce a change in metabolism | cognition [7]: improved | hyperinsulinemia [7]: improved | regional cerebral blood flow [7]: improved regional cerebral blood flow
